From patent publication US5336485A, “Method for protecting animals against tacrine induced cytotoxic injury using sterol compounds” (priority 1993, dated 1994)

How the values were obtained:
[1] = Cytotoxicity of various toxic insults (A23187, cadmium, O2, doxorubicin, CCl4, hypoxia) in rat hepatocytes; format: cell-based; details: rat, hepatocytes; Control (vehicle only, no insult), 25 μM alpha-TS; read-out: % Cell Death
Protocol: (§1) Only viable cells were monitored in the laboratory procedures.
(§2) In vitro experiments were performed to determine if alpha-TS could protect cells from different toxic insults. Under physiological conditions, rat hepatocytes were incubated with medium containing 25 μM alpha-TS. The hepatocytes were exposed to EMS, a potent mutagen and alkylating agent; the ionophore A23187, a membrane active compound that permits the equilibration of divalent cations across cell membranes; cadmium, a heavy metal, environmental contaminant, and known carcinogen who's mechanism of toxicity remains unknown; 95% O2, an excessive oxygen insult that produces an abundance of toxic oxygen free radicals and reactive oxygen intermediates in the cell; doxorubicin (adriamycin), a clinically important antitumor agent with cytotoxic effects proposed to result from its metabolic activation and the generation or reactive oxygen species; carbon tetrachloride (CCl4); and hypoxia (an absence of oxygen followed by reoxygenation).

[2] = tested on: rat hepatocytes; experiment: as above; format: cell-based
Protocol: as §1, §2

[3] = tested on: human prostate cells; details: 10 μM; cited from earlier work

For Cc1c(C)c2c(c(C)c1OC(=O)CCC(=O)O)CC[C@@](C)(CCC[C@H](C)CCC[C@H](C)CCCC(C)C)O2 [alpha-TS, d-alpha-tocopheryl succinate], which cytotoxicity at 25 µM [1] is on record?
Its cytotoxicity at 25 µM is 21%.

What about the “% Cell Death” value ([2]; 95% Oxygen, 25 μM alpha-TS (no alpha-TS 57)) of the same compound?
The value was 23%.

And the “% Cell Death” value ([2]; CCl4 2.5 mM, 25 μM alpha-TS (no alpha-TS 63))?
Its value is 38%.

And the “% Cell Death” value ([2]; Cadmium 0.1 mM, 25 μM alpha-TS (no alpha-TS 70))?
The value was 24%.

What about the “% Cell Death” value ([2]; Doxorubicin 100 μM, 25 μM alpha-TS (no alpha-TS 62)) of the same compound?
Its value is 28%.

What about the “% Cell Death” value ([2]; Hypoxia 4 hrs N2 and 2 hrs O2, 25 μM alpha-TS (no alpha-TS 70)) of the same compound?
The value was 49%.

What about the “% Cell Death” value ([2]; Ionophore A23187 5 μM, 25 μM alpha-TS (no alpha-TS 73)) of the same compound?
Its value is 24%.

And the “protection from lethal effects of ionophore A23187” value ([2]; rat hepatocytes, 25 μM, 5 μM A23187)?
The value was “protected rat hepatocytes from the lethal effects”.

And the tumor cell growth [3]?
The tumor cell growth was “inhibits tumor cell growth”.
